Results published in US6573252B1, “Medicine nitrate salts” (priority 1998, dated 2003).
Structures can show the parent of a compound that is named as a salt.

Experiments:
myeloperoxydase (MPO) = assay: Myeloperoxydase activity in intestinal tissue, acute colitis model (2,4,6-trinitrobenzensulphonic acid); assay type: in vivo; details: for Myeloperoxydase activity (unit/mg tissue): rectal route, amount corresponding to 100 mg/kg of 5-ASA, 6 administrations, intestinal tissue (wet)
Experimental: Myeloperoxydase Activity of the 5-Aminosalicylic Acid (4-nitroxy)butyl Ester Compared with that of the Corresponding Hydrochloride and Nitrate Salts, in an Acute Colitis Model
4 groups of 6 animals each have been formed. The groups were treated, respectively, with the carrier (carboxymethylcellulose aqueous solution 1%), 100 mg/Kg of 5-ASA, a 5-ASA-NO2.HCl amount corresponding to 100 mg/kg of 5-ASA, an amount of 5-ASA-NO2.HNO3 correspsonding to 100 mg/kg of 5-ASA.
The animals were treated by rectal route with the above compounds at zero time. After one hour the animals were treated with 0.5 ml of a 60 mg/ml solution of 2,4,6,trinitro-benzensulphonic acid in ethyl alcohol 50%. After two hours the animals were treated again by rectal route with the same compounds and at 12 hour intervals up to a total of 6 administrations.
The tissular levels of the myeloperoxydase (MPO) enzym have been measured which is an inflammatory process marker in various tissues, among which the bony-articular one (C. Rathakrishnan et Al., “Release of oxygen radicals by articular chondrocytes: A study of luminol-dependent chemiluminescence and hydrogen peroxide secretion” J. Bone Miner. Res. 7/10 1139-1148 1992).
The myeloperoxydase activity was measured by using a modified version of the experimental model described by Bradley et al. J. Invest. Dermatol. 78, 206-209, 1982. Samples of intestinal tissue were drawn from each animal, which were suspended in 0.1% of hexadecyltrimethylammonium bromide (50 mg/ml) at a pH 6 and homogenized for 15 seconds (Polytron® PT-7 generator). The samples were frozen and then defrosted three times subsequently before being centrifuged (9,000 g) for 2 minutes in an Eppendorf® Benchtop centrifuge. The myeloperoxydase activity was measured by adding 7 μl of the surnatant to 200 μl of o-dianisidine (Sigma) reactant and measuring the optical density variation at 450 nm in a two minute time in a Microtitre Multiscan®. The reactant contained 0.0005% of hydrogen peroxide as substratum for the myeloperoxydase enzym. One unity of the myeloperoxydase activity was defined as the one capable to convert an hydrogen proxide micromole to water in one minute at 22° C. The results are reported in Table II and are expressed as unit number of the myeloperoxydase activity/tissue mg (wet).

[1] = Gastric toxicity (gastric lesion incidence) after oral administration in fasted rats; assay type: in vivo; details: for Gastric damage (% incidence): rat, in vivo, po, 100 mg/kg
Experimental: Gastric Toxicity of Piroxicam Nitrate Salt (Ex. 1) Compared with Piroxicam
To 3 groups of 10 rats each, kept on empty stomach since 24 hours, orally are administered:
5 ml/Kg of carboxymethylcellulose aqueous suspension 2%.
an amount of nitrate Piroxicam corresponding to 100 mg/kg of Piroxicam in 5 ml/kg of carboxymethylcellulose aqueous suspension 2%.
an amount of hydrocloride Piroxicam corresponding to 100 mg/kg of Piroxicam in 5 ml/kg of carboxymethylcellulose aqueous suspension 2%.
Six hours later the animals are sacrificed and the gastric lesion incidence is evaluated.

[2] = Gastric damage induced by Aspirin, Alendronate compared with Alendronate nitrate salt; details: rats, after Aspirin 125 mg/Kg, Alendronate dose 80 mg/Kg p.o.
Experimental: Prevention of the Gastric Damage Induced by Aspirin by Administering Alendronate in Comparison with Alendronate Nitrate Salt
Three groups of 5 rats each were treated by oral route with gastric probe as indicated hereinafter:
I group: treated with Alendronate (Alen.) at the dose of 80 mg/Kg.
II group: 1 h before the Alendronate 80 mg/Kg dose, ASpirin (Asp.) was supplied per os at the dose of 125 mg/Kg.
III group: 1 h before the Alendronate nitrate, (Alen.HNO3) corresponding to the Alendronate 80 mg/Kg dose, Aspirin was supplied per os at the dose of 125 mg/Kg.
The evaluation of the gastric damage was carried out sacrificing the animals three hours after the treatment with Alendronate or Alendronate nitrate.

[3] = Acute toxicity, single oral dose in rats; assay type: in vivo; details: single dose 100 mg/kg orally in carboxymethylcellulose aqueous suspension 2% w/v, observation for 14 days
Experimental: To a group of 10 rats weighing […] a single dose equal to 100 mg/kg of Piroxicam nitrate salt (Example 1), has been administered by cannula orally in a carboxymethylcellulose aqueous suspension 2% w/v.
The animals are kept under obsevation for 14 days.

In the case of `Cl.Nc1ccc(O)c(C(=O)OCCCCO[N+](=O)[O-])c1` [5-ASA-NO2.HCl, Hydrochloride Salt of the 5-Aminosalicylic Acid (4-nitroxy)-butyl Ester, reference compound], the “Myeloperoxydase activity (unit/mg tissue)” value (myeloperoxydase (MPO)) is reported as 111 ± 20 unit/mg tissue.

With `Nc1ccc(O)c(C(=O)OCCCCO[N+](=O)[O-])c1.O=[N+]([O-])O` [5-ASA-NO2.HNO3, Nitrate Salt of the 5-amino-2-hydroxybenzoic Acid (4-nitroxy)butyl Ester] the “myeloperoxydase activity (comparison in words)” value (myeloperoxydase (MPO); acute colitis model, compared with the other groups) was “lower than that of the other groups”, the “pharmacological activity compared with the unsalified compound” value (myeloperoxydase (MPO); pharmacological model indicated in the examples) was “more active than the unsalified compound” and the “Myeloperoxydase activity (unit/mg tissue)” value (myeloperoxydase (MPO)) was 35 ± 13 unit/mg tissue.

In the case of `Nc1ccc(O)c(C(=O)O)c1` [Example 5-ASA, 5-aminosalicylic acid, reference compound], the “Myeloperoxydase activity (unit/mg tissue)” value (myeloperoxydase (MPO)) is reported as 72 ± 15 unit/mg tissue.

For `CN1C(C(=O)Nc2ccccn2)=C(O)c2ccccc2S1(=O)=O` [Piroxicam.HCl, Piroxicam hydrochloride, reference compound], the “Gastric damage (% incidence)” value ([1]; 6 h) was 100%.

With Alendronate Nitrate Salt [Alen.HNO3] the “reduction of the level of the gastric damage in comparison with Alendronate” value [2] was 4 to 5 times.

For Piroxicam Nitrate Salt [Piroxicam.HNO3], the “Gastric damage (% incidence)” value [1] was 20%, the “gastric tolerability (comparison in words)” value ([1]; rats, 100 mg/kg p.o., compared with Piroxicam hydrochloride) was “improved gastric tolerability compared with Piroxicam hydrochloride” and the toxic symptom presence [3] was “In no one of the animals of the group the toxic symptom presence was noticed”.
